O=C1CCCCCN1 [1-aza-2-cycloheptanone]
Details | vapor or sublimation pressure [kPa]
293.43 K, Crystal, Calculated from knudsen effusion weight loss | 0.000153
298.39 K, Crystal, Calculated from knudsen effusion weight loss | 0.000275
302.3 K, Crystal, Transpiration method | 0.00043
303.32 K, Crystal, Calculated from knudsen effusion weight loss | 0.000474
305.4 K, Crystal, Transpiration method | 0.00066
306.2 K, Crystal, Transpiration method | 0.0007
308.31 K, Crystal, Calculated from knudsen effusion weight loss | 0.000813
308.38 K, Crystal, Calculated from knudsen effusion weight loss | 0.000858
309.2 K, Crystal, Transpiration method | 0.00093
312.2 K, Crystal, Transpiration method | 0.00127
313.22 K, Crystal, Calculated from knudsen effusion weight loss | 0.00143
314.7 K, Crystal, Transpiration method | 0.00175
316.7 K, Crystal, Transpiration method | 0.0021
318.09 K, Crystal, Calculated from knudsen effusion weight loss | 0.00235
321.1 K, Crystal, Transpiration method | 0.00327
321.3 K, Crystal, Transpiration method | 0.00365
322.98 K, Crystal, Calculated from knudsen effusion weight loss | 0.00393
323.06 K, Crystal, Calculated from knudsen effusion weight loss | 0.00379
323.9 K, Crystal, Transpiration method | 0.00427
326.3 K, Crystal, Transpiration method | 0.00568
327.93 K, Crystal, Calculated from knudsen effusion weight loss | 0.00636
328 K, Crystal, Calculated from knudsen effusion weight loss | 0.0061
328.3 K, Crystal, Transpiration method | 0.00668
330.2 K, Crystal, Transpiration method | 0.00801
332.89 K, Crystal, Calculated from knudsen effusion weight loss | 0.01
332.93 K, Crystal, Calculated from knudsen effusion weight loss | 0.0105
333.2 K, Crystal, Transpiration method | 0.01064
336.3 K, Crystal, Transpiration method | 0.01422
337.4 K, Crystal, Transpiration method | 0.01727
337.82 K, Crystal, Calculated from knudsen effusion weight loss | 0.0155
339 K, Crystal, Transpiration method | 0.01833
345.2 K, Liquid, Transpiration method | 0.0319
345.8 K, Liquid, Transpiration method | 0.0322
347.8 K, Liquid, Transpiration method | 0.0376
350.9 K, Liquid, Transpiration method | 0.0457
353.9 K, Liquid, Transpiration method | 0.0564
355.4 K, Liquid, Transpiration method | 0.0612
357 K, Liquid, Transpiration method | 0.071
359.1 K, Liquid, Transpiration method | 0.0758
360.2 K, Liquid, Transpiration method | 0.089
362.1 K, Liquid, Transpiration method | 0.0992
363.1 K, Liquid, Transpiration method | 0.103
364.9 K, Liquid, Transpiration method | 0.1189
366.3 K, Liquid, Transpiration method | 0.1294
369.7 K, Liquid, Transpiration method | 0.16
372.2 K, Liquid, Transpiration method | 0.1866

Source: the NIST ThermoML archive (doi:10.1021/je050277k)
